# Values joined by “and” are separate entries in the source; they are usually repeats but may differ in a detail not shown here. Equal values may be shown once. Active and inactive are the calls of the source. The calls are words filed in the database; no cut-off is given here.
# Key:
# Canis familiaris [1] = experiment: Tested for Norman sinus rhythm in dogs at a dose of 6 mg/kg Expt-2; type: functional, Canis lupus familiaris
# Canis familiaris [2] = experiment: Tested for mean blood pressure without ventricular tachycardia in dogs at a dose of 6 mg/kg Expt-1; type: functional, Canis lupus familiaris
# Canis familiaris [3] = experiment: Tested for mean blood pressure without ventricular tachycardia in dogs at a dose of 3 mg/kg Expt-1; type: functional, Canis lupus familiaris
# Canis familiaris [4] = experiment: Tested for Sustained ventricular tachycardia in dogs at a dose of 6 mg/kg Expt-2; type: functional, Canis lupus familiaris, Cardiac ventricle
# Canis familiaris [5] = organism: Canis familiaris; experiment: Relative effect on abolition of ventricular tachycardia in dogs; no abolition of VT; type: functional, organism-based; conditions: Canis lupus familiaris; Cardiac ventricle
# Canis familiaris [6] = experiment: Tested for Sustained ventricular tachycardia in dogs at a dose of 3 mg/kg Expt-2; type: functional, Canis lupus familiaris, Cardiac ventricle
# Canis familiaris [7] = experiment: Tested for Sustained ventricular tachycardia in dogs at a dose of 6 mg/kg Expt-1; type: functional, Canis lupus familiaris, Cardiac ventricle
# Canis familiaris [8] = experiment: Tested for mean blood pressure with ventricular tachycardia in dogs at a dose of 6 mg/kg Expt-1; type: functional, Canis lupus familiaris
# Canis familiaris [9] = experiment: Tested for Norman sinus rhythm in dogs at a dose of 3 mg/kg Expt-2; type: functional, Canis lupus familiaris
# Canis familiaris [10] = experiment: Tested for mean blood pressure with ventricular tachycardia in dogs at a dose of 3 mg/kg Expt-2; type: functional, Canis lupus familiaris
# Canis familiaris [11] = experiment: Tested for Sustained ventricular tachycardia in dogs at a dose of 3 mg/kg Expt-1; type: functional, Canis lupus familiaris, Cardiac ventricle
# Canis familiaris [12] = experiment: Tested for Norman sinus rhythm in dogs at a dose of 3 mg/kg Expt-1; type: functional, Canis lupus familiaris
# Canis familiaris [13] = organism: Canis familiaris; experiment: Relative effect on slowing of ventricular tachycardia in dogs; slowing of VT; type: functional, organism-based; conditions: Canis lupus familiaris; Cardiac ventricle
# Canis familiaris [14] = organism: Canis familiaris; experiment: Relative effect on exacerbation of ventricular tachycardia in dogs; exacerbation of VT; type: functional, organism-based; conditions: Canis lupus familiaris; Cardiac ventricle
# Canis familiaris [15] = experiment: Tested for Norman sinus rhythm in dogs at a dose of 6 mg/kg Expt-1; type: functional, Canis lupus familiaris
# Canis familiaris [16] = experiment: Tested for mean blood pressure without ventricular tachycardia in dogs at a dose of 6 mg/kg Expt-2; type: functional, Canis lupus familiaris
# Canis familiaris [17] = organism: Canis familiaris; experiment: Relative effect on normal sinus rate in dogs; NC=no change; type: functional, organism-based; conditions: Canis lupus familiaris
# Canis familiaris [18] = experiment: Tested for mean blood pressure without ventricular tachycardia in dogs at a dose of 3 mg/kg Expt-2; type: functional, Canis lupus familiaris
# Canis familiaris [19] = experiment: Tested for mean blood pressure with ventricular tachycardia in dogs at a dose of 6 mg/kg Expt-2; type: functional, Canis lupus familiaris
# Canis familiaris [20] = organism: Canis familiaris; experiment: Relative effect on mean blood pressure in dogs; NC=no change; type: functional, organism-based; conditions: Canis lupus familiaris
# Canis familiaris [21] = organism: Canis familiaris; experiment: Relative effect on normal sinus rate in dogs;NC =no change in normal sinus rate.; type: functional, organism-based; conditions: Canis lupus familiaris
# Canis familiaris [22] = experiment: Relative effect on mean blood pressure in dogs; Slight 8% increase im mean BP; type: functional, organism-based; conditions: Canis lupus familiaris
# Canis familiaris [23] = experiment: Tested for Norman sinus rhythm in dogs at a dose of 6 mg/kg; type: functional, Canis lupus familiaris; design: unit not given beside the values
# Canis familiaris [24] = organism: Canis familiaris; experiment: Relative effect on abolition of ventricular tachycardia in dogs;abolition of VT; type: functional, organism-based; conditions: Canis lupus familiaris; Cardiac ventricle
# Canis familiaris [25] = organism: Canis familiaris; experiment: Relative effect on exacerbation of ventricular tachycardia in dogs; No exacerbation of VT; type: functional, organism-based; conditions: Canis lupus familiaris; Cardiac ventricle
# Canis familiaris [26] = experiment: Tested for mean blood pressure without ventricular tachycardia in dogs at a dose of 3 mg/kg; type: functional, Canis lupus familiaris
# Canis familiaris [27] = experiment: Tested for Norman sinus rhythm in dogs at a dose of 3 mg/kg; type: functional, Canis lupus familiaris
# Canis familiaris [28] = experiment: Tested for mean blood pressure without ventricular tachycardia in dogs at a dose of 6 mg/kg; type: functional, Canis lupus familiaris
# Canis familiaris [29] = experiment: Tested for mean blood pressure without ventricular tachycardia in dogs at a dose of 3 mg/kg expt-1; type: functional, Canis lupus familiaris
# Canis familiaris [30] = experiment: Tested for mean blood pressure with ventricular tachycardia in dogs at a dose of 6 mg/kg expt-2; type: functional, Canis lupus familiaris
# Canis familiaris [31] = experiment: Tested for mean blood pressure with ventricular tachycardia in dogs at a dose of 3 mg/kg expt-2; type: functional, Canis lupus familiaris
# Canis familiaris [32] = experiment: Tested for mean blood pressure with ventricular tachycardia in dogs at a dose of 6 mg/kg expt-1; type: functional, Canis lupus familiaris
# Canis familiaris [33] = experiment: Tested for mean blood pressure without ventricular tachycardia in dogs at a dose of 3 mg/kg expt-2; type: functional, Canis lupus familiaris
# Canis familiaris [34] = organism: Canis familiaris; experiment: Relative effect on slowing of ventricular tachycardia in dogs;slowing of VT present; type: functional, organism-based; conditions: Canis lupus familiaris; Cardiac ventricle
# Canis familiaris [35] = experiment: Tested for mean blood pressure without ventricular tachycardia in dogs at a dose of 6 mg/kg expt-2; type: functional, Canis lupus familiaris
# Canis familiaris [36] = experiment: Tested for Norman sinus rhythm in dogs at a dose of 6 mg/kg expt-2; type: functional, Canis lupus familiaris
# Canis familiaris [37] = experiment: Tested for Norman sinus rhythm in dogs at a dose of 6 mg/kg expt-1; type: functional, Canis lupus familiaris
# Canis familiaris [38] = organism: Canis familiaris; experiment: Relative effect on mean blood pressure in dogs;NC = no change in mean BP; type: functional, organism-based; conditions: Canis lupus familiaris
# Canis familiaris [39] = experiment: Tested for Norman sinus rhythm in dogs at a dose of 3 mg/kg expt-1; type: functional, Canis lupus familiaris
# Canis familiaris [40] = organism: Canis familiaris; experiment: Relative effect on exacerbation of ventricular tachycardia in dogs; Exacerbation of VT present; type: functional, organism-based; conditions: Canis lupus familiaris; Cardiac ventricle
# Canis familiaris [41] = experiment: Tested for mean blood pressure with ventricular tachycardia in dogs at a dose of 3 mg/kg expt-1; type: functional, Canis lupus familiaris
# Canis familiaris [42] = experiment: Tested for mean blood pressure without ventricular tachycardia in dogs at a dose of 6 mg/kg expt-1; type: functional, Canis lupus familiaris
# Canis familiaris [43] = experiment: Tested for Norman sinus rhythm in dogs at a dose of 3 mg/kg expt-2; type: functional, Canis lupus familiaris
# Canis familiaris [44] = experiment: Tested for mean blood pressure without ventricular tachycardia in dogs at a dose of 6 mg/kg expt-3; type: functional, Canis lupus familiaris
# Canis familiaris [45] = organism: Canis familiaris; experiment: Relative effect on mean blood pressure in dogs; moderate increase by 16% in mean BP; type: functional, organism-based; conditions: Canis lupus familiaris
# Canis familiaris [46] = organism: Canis familiaris; experiment: Relative effect on normal sinus rate in dogs;NC=no change; type: functional, organism-based; conditions: Canis lupus familiaris
# Canis familiaris [47] = organism: Canis familiaris; experiment: Relative effect on exacerbation of ventricular tachycardia in dogs; no exacerbation of VT; type: functional, organism-based; conditions: Canis lupus familiaris; Cardiac ventricle
# Canis familiaris [48] = organism: Canis familiaris; experiment: Relative effect on abolition of ventricular tachycardia in dogs; abolition of VT; type: functional, organism-based; conditions: Canis lupus familiaris; Cardiac ventricle
# Canis familiaris [49] = experiment: Tested for Norman sinus rhythm in dogs at a dose of 3 mg/kg Expt-3; type: functional, Canis lupus familiaris
# Canis familiaris [50] = experiment: Tested for mean blood pressure without ventricular tachycardia in dogs at a dose of 3 mg/kg expt-3; type: functional, Canis lupus familiaris
# Canis familiaris [51] = organism: Canis familiaris; experiment: Relative effect on mean blood pressure in dogs;NC=no change in mean BP; type: functional, organism-based; conditions: Canis lupus familiaris
# Canis familiaris [52] = organism: Canis familiaris; experiment: Relative effect on normal sinus rate in dogs;Slight decrease; type: functional, organism-based; conditions: Canis lupus familiaris
# Canis familiaris [53] = organism: Canis familiaris; experiment: Relative effect on mean blood pressure in dogs; Moderate change in mean BP; type: functional, organism-based; conditions: Canis lupus familiaris
# Canis familiaris [54] = organism: Canis familiaris; experiment: Relative effect on normal sinus rate in dogs;Slight increase; type: functional, organism-based; conditions: Canis lupus familiaris
# Canis familiaris [55] = organism: Canis familiaris; experiment: Relative effect on abolition of ventricular tachycardia in dogs; type: functional, organism-based; conditions: Canis lupus familiaris; Cardiac ventricle
smiles,measurement,setting,value
OC1(O)C2C[Se]CC1CN(Cc1ccccc1)C2,NSR,Canis familiaris [1],150
same,MBP,Canis familiaris [2],125
same,MBP,Canis familiaris [3],125
same,Activity,Canis familiaris [4],255 beats min-1
same,Effect,Canis familiaris [5],No exacerbation
same,Activity,Canis familiaris [6],300 beats min-1
same,Activity,Canis familiaris [7],320 beats min-1
same,MBP,Canis familiaris [8],70
same,NSR,Canis familiaris [9],155
same,MBP,Canis familiaris [10],40
same,Activity,Canis familiaris [11],280 beats min-1
same,NSR,Canis familiaris [12],150
same,Effect,Canis familiaris [13],exacerbation of VT
same,Effect,Canis familiaris [14],exacerbation of VT
same,NSR,Canis familiaris [15],155
same,MBP,Canis familiaris [16],130
same,Effect,Canis familiaris [17],inactive
same,MBP,Canis familiaris [18],130
same,MBP,Canis familiaris [19],60
same,Effect,Canis familiaris [20],inactive
c1ccc(CN2CC3C[Se]CC(C3)C2)cc1,Effect,Canis familiaris [21],No change
same,Effect,Canis familiaris [22],Slight
same,NSR,Canis familiaris [23],160
same,Effect,Canis familiaris [24],abolition of ventricular tachycardia
same,Effect,Canis familiaris [25],No exacerbation
same,MBP,Canis familiaris [26],126
same,NSR,Canis familiaris [27],160
same,MBP,Canis familiaris [28],125
CCN(CC)CC(=O)Nc1c(C)cccc1C [LIDOCAINE],Effect,Canis familiaris [21],inactive
same,MBP,Canis familiaris [29],110
same,MBP,Canis familiaris [30],52
same,MBP,Canis familiaris [31],75
same,Effect,Canis familiaris [5],inactive
same,MBP,Canis familiaris [32],40
same,MBP,Canis familiaris [33],70
same,Effect,Canis familiaris [34],Active
same,MBP,Canis familiaris [35],72
same,NSR,Canis familiaris [36],150
same,NSR,Canis familiaris [37],160
same,Effect,Canis familiaris [38],inactive
same,NSR,Canis familiaris [39],165
same,Effect,Canis familiaris [40],Active
same,MBP,Canis familiaris [41],40
same,MBP,Canis familiaris [42],112
same,NSR,Canis familiaris [43],150
c1ccc(CCN2CC3C[Se]CC(C3)C2)cc1,MBP,Canis familiaris [44],85
same,Effect,Canis familiaris [45],mod
same,MBP,Canis familiaris [29],128
same,MBP,Canis familiaris [33],85
same,Effect,Canis familiaris [46],inactive
same,Effect,Canis familiaris [47],No exacerbation
same,MBP,Canis familiaris [35],150
same,NSR,Canis familiaris [9],150
same,Effect,Canis familiaris [48],abolition of ventricular tachycardia
same,NSR,Canis familiaris [49],155
same,NSR,Canis familiaris [23]; 6 mg/kg,165 and 150 and 155
same,NSR,Canis familiaris [12],168
same,MBP,Canis familiaris [50],150
same,MBP,Canis familiaris [42],125
c1ccc([C@H]2N[C@@H](c3ccccc3)C3C[Se]CC2C3)cc1,NSR,Canis familiaris [1],140
same,MBP,Canis familiaris [2],125
same,MBP,Canis familiaris [3],125
same,Activity,Canis familiaris [4],280 beats min-1
same,Activity,Canis familiaris [6],270 beats min-1
same,Effect,Canis familiaris [51],No change
same,NSR,Canis familiaris [9],150
same,MBP,Canis familiaris [10],30
same,NSR,Canis familiaris [12],150
same,Effect,Canis familiaris [13],exacerbation of VT
same,Effect,Canis familiaris [52],Slight
same,Effect,Canis familiaris [14],exacerbation of VT
same,NSR,Canis familiaris [15],145
same,Effect,Canis familiaris [53],mod
same,Effect,Canis familiaris [54],Slight
same,MBP,Canis familiaris [16],80
same,Effect,Canis familiaris [55],exacerbation of VT
same,MBP,Canis familiaris [18],82
same,MBP,Canis familiaris [19],20

# — ChEMBL document CHEMBL1123731, “Synthesis and antiarrhythmic properties of novel 3-selena-7-azabicyclo[3.3.1]nonanes and derivatives. Single-crystal X-ray diffraction analysis of 7-benzyl-3-selena-7-azabicyclo[3.3.1]nonan-9-one and 7-benzyl-3-selena-7-azabicyclo[3.3.1]nonane hydroperchlorate” (1987)
